For one assay, the target named is FXa (Homo sapiens, UniProt P00742). Kind of assay: Related protease inhibition: FXa, fluorogenic substrate. The class given is biochemical. The following applies: fluorogenic substrate at Km, 25° C.; H1-H3 = % activity at 40 μM. The method, then: Human serine protease enzyme Plasma Kallikrein, KLK1, FXa, Plasmin, Thrombin and Trypsin were assayed for enzymatic activity using an appropriate fluorogenic substrate at Km concentration, FXIa at fixed substrate concentration of 100 μM and various concentrations of the test compound.

Assay [1] has as its target T1, Human Factor XIIa (hFXIIa) (Homo sapiens, UniProt P00748).
T1 construct: purchased Enzyme Research Laboratories
T1 sequence (P00748 373-615 limits assumed): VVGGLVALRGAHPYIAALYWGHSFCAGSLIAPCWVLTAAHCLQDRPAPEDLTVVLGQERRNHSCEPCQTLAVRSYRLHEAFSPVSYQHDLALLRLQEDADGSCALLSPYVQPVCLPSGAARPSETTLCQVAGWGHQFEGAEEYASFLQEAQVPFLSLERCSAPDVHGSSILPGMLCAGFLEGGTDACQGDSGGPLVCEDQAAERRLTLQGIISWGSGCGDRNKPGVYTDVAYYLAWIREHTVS
T1 sequence (P00748 20-372 partner limits assumed): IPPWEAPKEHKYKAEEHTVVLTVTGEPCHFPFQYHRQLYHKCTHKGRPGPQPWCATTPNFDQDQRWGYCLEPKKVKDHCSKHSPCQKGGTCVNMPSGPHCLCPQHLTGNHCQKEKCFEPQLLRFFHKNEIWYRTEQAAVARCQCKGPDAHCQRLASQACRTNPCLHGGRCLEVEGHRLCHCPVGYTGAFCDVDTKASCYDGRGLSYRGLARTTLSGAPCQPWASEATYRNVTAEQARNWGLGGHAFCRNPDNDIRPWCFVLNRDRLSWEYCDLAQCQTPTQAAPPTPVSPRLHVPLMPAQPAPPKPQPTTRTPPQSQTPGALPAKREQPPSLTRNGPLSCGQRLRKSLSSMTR
The experiment in a line: Determination of Human Factor XIIa (hFXIIa) inhibition, fluorogenic substrate IC50 assay. The following applies: fluorogenic substrate H-DPro-Phe-Arg-AFC at Km, 25° C., read-out: Human FXIIa IC50. The class given is biochemical. The procedure:
Determination of Human Factor XIIa (hFXIIa) inhibition
The Km for the cleavage of the substrate by hFXIIa was determined by standard transformation of the Michaelis-Menten equation, with subsequent inhibition assays performed at substrate Km concentration.

Here are results for 18 molecules from patent US20260132132A1, “3A,4,5,6-TETRAHYDRO-1 H-PYRAZOLO[3,4-C]PYRIDIN-7(7AH)-ONE DERIVATIVES AS FACTOR XIIA INHIBITORS” (KALVISTA PHARMACEUTICALS LIMITED, priority 2022, published 2026).

Each structure is given as a SMILES string.

Broadly, the IC50 is the midpoint of a concentration-inhibition curve.

Chain of FXa (P00742 235-488 limits assumed): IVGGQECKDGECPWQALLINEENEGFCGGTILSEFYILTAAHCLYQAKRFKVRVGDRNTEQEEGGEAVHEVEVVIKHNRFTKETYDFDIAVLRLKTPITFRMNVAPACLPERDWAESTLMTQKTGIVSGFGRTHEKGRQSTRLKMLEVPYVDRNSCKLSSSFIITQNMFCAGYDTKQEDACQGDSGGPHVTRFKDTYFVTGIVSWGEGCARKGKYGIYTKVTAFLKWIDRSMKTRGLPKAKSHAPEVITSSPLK
Chain of FXa (P00742 41-179 partner limits assumed): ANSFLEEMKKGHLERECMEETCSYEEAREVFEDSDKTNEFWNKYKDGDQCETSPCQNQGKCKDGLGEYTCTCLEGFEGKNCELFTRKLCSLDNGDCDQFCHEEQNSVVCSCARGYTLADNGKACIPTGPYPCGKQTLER

On to `CN1CCc2ccc(N3CCc4c(C(=O)NCCC(=O)O)nn(-c5cccc(Cl)c5)c4C3=O)cc2C1=O` [Example 1386, 3-(1-(3-chlorophenyl)-6-(2-methyl-1-oxo-1,2,3,4-tetrahydroisoquinolin-7-yl)-7-oxo-4,5,6,7-tetrahydro-1H-pyrazolo[3,4-c]pyridine-3-carboxamido)propanoic acid], for which the IC50 is greater than 40000 nM at FXa and 1000 to 3000 nM in assay [1].

With `Cc1cc(CNC(=O)c2nn(-c3cccc(Cl)c3)c3c2CCN(c2ccc4c(c2)C(=O)N(CC(=O)O)CC4)C3=O)n[nH]1` [Example 1332, 2-(7-(1-(3-chlorophenyl)-3-(((5-methyl-1H-pyrazol-3-yl)methyl)carbamoyl)-7-oxo-1,4,5,7-tetrahydro-6H-pyrazolo[3,4-c]pyridin-6-yl)-1-oxo-3,4-dihydroisoquinolin-2(1H)-yl)acetic acid], the IC50 was greater than 4000 nM on FXa and 300 to 1000 nM in assay [1].

Take `Cc1ccncc1CNC(=O)c1nn(-c2cccc(Cl)c2)c2c1CCN(c1ccc3c(c1)C(=O)N(CCO)CC3)C2=O` [Example 1236, 1-(3-chlorophenyl)-6-(2-(2-hydroxyethyl)-1-oxo-1,2,3,4-tetrahydroisoquinolin-7-yl)-N-((4-methylpyridin-3-yl)methyl)-7-oxo-4,5,6,7-tetrahydro-1H-pyrazolo[3,4-c]pyridine-3-carboxamide]: the figures for the IC50 (against FXa; in assay [1]) were greater than 40000 nM and 10 to 100 nM, respectively.

Regarding `CN1CCc2ccc(N3CCc4c(C(=O)NC(CO)c5cccnc5)nn(-c5cccc(Cl)c5)c4C3=O)cc2C1=O` (stereo not drawn) [Example 1187, 1-(3-chlorophenyl)-N-(2-hydroxy-1-(pyridin-3-yl)ethyl)-6-(2-methyl-1-oxo-1,2,3,4-tetrahydroisoquinolin-7-yl)-7-oxo-4,5,6,7-tetrahydro-1H-pyrazolo[3,4-c]pyridine-3-carboxamide], the IC50 was greater than 40000 nM against FXa and 300 to 1000 nM in assay [1].

As to `O=C(NCc1ccncc1F)c1nn(-c2cccc(Cl)c2)c2c1CCN(c1ccc3c(c1)CN(CCO)CC3)C2=O` [Example 1161, 1-(3-chlorophenyl)-N-((3-fluoropyridin-4-yl)methyl)-6-(2-(2-hydroxyethyl)-1,2,3,4-tetrahydroisoquinolin-7-yl)-7-oxo-4,5,6,7-tetrahydro-1H-pyrazolo[3,4-c]pyridine-3-carboxamide], the IC50 was greater than 40000 nM at FXa and 10 to 100 nM in assay [1].

For `CCNC(=O)c1nn(-c2cc(Cl)cc(CO)c2)c2c1CCN(c1ccc3c(c1)C(=O)N(C)CC3)C2=O` [Example 2033, 1-(3-chloro-5-(hydroxymethyl)phenyl)-N-ethyl-6-(2-methyl-1-oxo-1,2,3,4-tetrahydroisoquinolin-7-yl)-7-oxo-4,5,6,7-tetrahydro-1H-pyrazolo[3,4-c]pyridine-3-carboxamide], the values for the IC50 (at FXa; in assay [1]) were greater than 40000 nM and 300 to 1000 nM, respectively.

As to `Cc1ccncc1CNC(=O)c1nn(-c2cccc(Cl)c2)c2c(=O)n(-c3ccc4c(c3)C(=O)N(CCO)CC4)c(C)nc12` [Example 3017, 1-(3-chlorophenyl)-6-(2-(2-hydroxyethyl)-1-oxo-1,2,3,4-tetrahydroisoquinolin-7-yl)-5-methyl-N-((4-methylpyridin-3-yl)methyl)-7-oxo-6,7-dihydro-1H-pyrazolo[4,3-d]pyrimidine-3-carboxamide], the IC50 lay in the range of 10000 to 40000 nM on FXa and 10 to 100 nM in assay [1].

Turning to `CCNC(=O)c1nn(-c2cccc(Cl)c2)c2c1CCN(c1ccc3c(c1)C(=O)N(CC)CCO3)C2=O` [Example 1371, 1-(3-chlorophenyl)-N-ethyl-6-(4-ethyl-5-oxo-2,3,4,5-tetrahydrobenzo[f][1,4]oxazepin-7-yl)-7-oxo-4,5,6,7-tetrahydro-1H-pyrazolo[3,4-c]pyridine-3-carboxamide], the IC50 at FXa was 10000 to 40000 nM; in assay [1], 100 to 300 nM.

Consider `Cc1ccncc1CNC(=O)c1nn(-c2cccc(Cl)c2)c2c1CCN(c1cc3c(cc1F)CCN(CCO)C3)C2=O` [Example 1134, 1-(3-Chlorophenyl)-6-(6-fluoro-2-(2-hydroxyethyl)-1,2,3,4-tetrahydroisoquinolin-7-yl)-N-((4-methylpyridin-3-yl)methyl)-7-oxo-4,5,6,7-tetrahydro-1H-pyrazolo[3,4-c]pyridine-3-carboxamide], for which the results for the IC50 (on FXa; in assay [1]) were 10000 to 40000 nM and 10 to 100 nM, respectively.

For the molecule `Cc1cc(CNC(=O)c2nn(-c3cccc(Cl)c3)c3c2CCN(c2ccc4c(c2)C(=O)N(CCCO)CC4)C3=O)nn1C` [Example 1275, 1-(3-chlorophenyl)-N-((1,5-dimethyl-1H-pyrazol-3-yl)methyl)-6-(2-(3-hydroxypropyl)-1-oxo-1,2,3,4-tetrahydroisoquinolin-7-yl)-7-oxo-4,5,6,7-tetrahydro-1H-pyrazolo[3,4-c]pyridine-3-carboxamide], the IC50 on FXa lay within 10000 to 40000 nM; in assay [1] it was 10 to 100 nM.

As for `CCN1CCOc2ccc(N3CCc4c(C(=O)NCc5cnccc5C)nn(-c5cccc(Cl)c5)c4C3=O)cc2C1=O` [Example 1318, 1-(3-chlorophenyl)-6-(4-ethyl-5-oxo-2,3,4,5-tetrahydrobenzo[f][1,4]oxazepin-7-yl)-N-((4-methylpyridin-3-yl)methyl)-7-oxo-4,5,6,7-tetrahydro-1H-pyrazolo[3,4-c]pyridine-3-carboxamide], the IC50 lay in the range of 3000 to 10000 nM against FXa and 10 to 100 nM in assay [1].

For `CN1CCc2ccc(N3CCc4c(C(=O)NCC5COC5)nn(-c5cccc(Cl)c5)c4C3=O)cc2C1=O` [Example 1339, 1-(3-chlorophenyl)-6-(2-methyl-1-oxo-1,2,3,4-tetrahydroisoquinolin-7-yl)-N-(oxetan-3-ylmethyl)-7-oxo-4,5,6,7-tetrahydro-1H-pyrazolo[3,4-c]pyridine-3-carboxamide], the results for the IC50 (at FXa; in assay [1]) were greater than 40000 nM and 300 to 1000 nM, respectively.

Turning to `Cc1ccncc1CNC(=O)c1nn(-c2cccc(Cl)c2F)c2c1CCN(c1ccc3c(c1)CN(CCO)CC3)C2=O` [Example 2002, 1-(3-Chloro-2-fluorophenyl)-6-(2-(2-hydroxyethyl)-1,2,3,4-tetrahydroisoquinolin-7-yl)-N-((4-methylpyridin-3-yl)methyl)-7-oxo-4,5,6,7-tetrahydro-1H-pyrazolo[3,4-c]pyridine-3-carboxamide], the results for the IC50 (at FXa; in assay [1]) were greater than 40000 nM and 10 to 100 nM, respectively.

As to `Cc1cc(CNC(=O)c2nn(-c3cccc(Cl)c3)c3c2CCN(c2ccc4c(c2)C(=O)N(CCCO)CCO4)C3=O)nn1C` [Example 1377, 1-(3-chlorophenyl)-N-((1,5-dimethyl-1H-pyrazol-3-yl)methyl)-6-(4-(3-hydroxypropyl)-5-oxo-2,3,4,5-tetrahydrobenzo[f][1,4]oxazepin-7-yl)-7-oxo-4,5,6,7-tetrahydro-1H-pyrazolo[3,4-c]pyridine-3-carboxamide], the IC50 against FXa fell in the range of 3000 to 10000 nM; in assay [1], 10 to 100 nM.

Take `Cc1ccncc1CNC(=O)c1nn(-c2cccc(C#N)c2)c2c1CCN(c1ccc3c(c1)CN(CCO)CC3)C2=O` [Example 2010, 1-(3-cyanophenyl)-6-(2-(2-hydroxyethyl)-1,2,3,4-tetrahydroisoquinolin-7-yl)-N-((4-methylpyridin-3-yl)methyl)-7-oxo-4,5,6,7-tetrahydro-1H-pyrazolo[3,4-c]pyridine-3-carboxamide]: the IC50 against FXa is greater than 40000 nM; in assay [1] it was 100 to 300 nM.

For `CCNC(=O)c1nn(-c2cccc(C)c2F)c2c1CCN(c1ccc3c(c1)C(=O)N(C)CC3)C2=O` [Example 2032, N-ethyl-1-(2-fluoro-3-methylphenyl)-6-(2-methyl-1-oxo-1,2,3,4-tetrahydroisoquinolin-7-yl)-7-oxo-4,5,6,7-tetrahydro-1H-pyrazolo[3,4-c]pyridine-3-carboxamide], the IC50 on FXa is greater than 40000 nM; in assay [1], 300 to 1000 nM.

For `Cc1ccc(-n2nc(C(=O)NCc3cnccc3C)c3c2C(=O)N(c2ccc4c(c2)CN(CCO)CC4)CC3)cc1Cl` [Example 2007, 1-(3-chloro-4-methylphenyl)-6-(2-(2-hydroxyethyl)-1,2,3,4-tetrahydroisoquinolin-7-yl)-N-((4-methylpyridin-3-yl)methyl)-7-oxo-4,5,6,7-tetrahydro-1H-pyrazolo[3,4-c]pyridine-3-carboxamide], the IC50 at FXa is greater than 40000 nM; in assay [1], 100 to 300 nM.

`CCOC(=O)c1nn(-c2cccc(Cl)c2)c2c(=O)n(-c3ccc4c(c3)C(=O)N(CCO)CC4)c(C)nc12` [Example 3019, ethyl 1-(3-chlorophenyl)-6-(2-(2-hydroxyethyl)-1-oxo-1,2,3,4-tetrahydroisoquinolin-7-yl)-5-methyl-7-oxo-6,7-dihydro-1H-pyrazolo[4,3-d]pyrimidine-3-carboxylate]: the IC50 on FXa lay in the range of 3000 to 10000 nM; in assay [1] it was 100 to 300 nM.
